From publication PMC3161871, “Heteroarylketones inhibit astroglial interleukin-6 expression via a STAT3/NF-κB signaling pathway” (Journal of Neuroinflammation, 2011)

Key:
[1] = test system: OSM-stimulated IL-6 secretion from U343 cells; experiment: OSM-induced IL-6 release from U343 glioma cells (IL-6 ELISA of conditioned medium); type: cell-based, human; conditions: 20 μM compound, vehicle-transfected U343 cells, OSM 6 h
[2] = test system: LPS-induced IL-6 release in primary mouse astrocytes; experiment: LPS-induced IL-6 release in primary mouse astrocytes (ELISA); type: cell-based; conditions: 1 μg/ml LPS, 20 μM compound, 24 h
Protocol: (§1) According to Löffler, astrocyte-rich primary cell cultures were started with brains of newborn mice and rats and were maintained in Dulbecco's modified Eagle's medium (DMEM) for 33 days at 37°C in a humified atmosphere with 95% air/5% CO2.
(§2) Measurements of IL-6 in conditioned medium and murine plasma samples were done by means of human- or murine-specific IL-6 Cytoset kits (Invitrogen, Darmstadt, Germany) according to manufacturer's protocols.
(§3) Figure 5 Suppression of LPS-induced IL-6 release in primary murine astrocytes by selected HAK compounds. […] Astrocytes derived from newborn mice and rats were cultivated for 33 days followed by stimulation with 1 μg/ml LPS and treatment with compounds HAK-2 and HAK-5 (20 μM). After 24 hours conditioned media were analyzed with IL-6 specific ELISA. Data (mean ± SD) were obtained from experiments carried out in quadruplicate and statistical analysis was performed using the paired t test. Amount of IL-6 in LPS-treated control sample was set to 100%. ns, not significant; **p < 0.01; ***p < 0.001.
(§4) Primary murine astrocytes stimulated with 1 μg/ml LPS were co-treated with compounds HAK-2 and HAK-5 at a concentration of 20 μM each for 24 h. The observed effect of compounds HAK-2 and HAK-5 on LPS stimulation was similar to that of OSM-induced IL-6 expression in human U343 glioma cells (Figures 5A and 5B). […]

[3] = test system: LPS-induced IL-6 release in primary rat astrocytes; experiment: LPS-induced IL-6 release in primary rat astrocytes (ELISA); type: cell-based; conditions: 1 μg/ml LPS, 20 μM compound, 24 h
Protocol: as §1, §2, §3, §4

For C[C@H](NC(=O)OCc1ccccc1)C(=O)N1CCC[C@H]1C(=O)c1nc2ccccc2s1 [HAK-2, Z-Ala-Pro-BTh], the “IL-6 levels (mRNA and released protein) in the PREP knock-down experiment” value [1] was “reduces IL-6 levels”, the “Reduction of LPS-induced IL-6 expression” value [2] was 60% and the “Reduction of LPS-induced IL-6 expression” value [3] was 50%.
